Measured values as given in patent US20250282785A1, “PYRROLIDINONE DERIVATIVES AS INHIBITORS OF NF KAPPA B INDUCING KINASE” (priority 2022, published 2025).

Key:
[1] = target: Recombinant Human NF-Kappab-Inducing Kinase (NIK/MAP3K14) (Homo sapiens, UniProt Q99558); assay: Inhibition of auto-phosphorylation of recombinant human NIK/MAP3K14 (AlphaScreen); assay type: biochemical; details: NIK/MAP3K14 auto-phosphorylation, 5 microM ATP, 1 nM enzyme, 2 h at 25° C.; average of values; read-out: Assay 1 IC50
Method in brief: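 GST-tagged NIK (1 nM) auto-phosphorylation with 5 µM ATP in Tris pH 7.5/MgCl2 buffer, 0.7% DMSO, 2 h at 25 °C. Phospho-IKK Ser176/180 antibody detected by AlphaScreen beads. Signal normalized to full-enzyme and no-ATP controls; IC50 from sigmoidal fit of % inhibition vs log concentration.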

[2] = test system: p-IKKα levels in L363 (NIK translocated multiple myeloma) cells; assay: Effect of compounds on p-IKKα levels in L363 cells (AlphaLISA SureFire Ultra); assay type: cell-based; details: Homo sapiens, L-363; L363 cells, BAFF stimulated, MG132, 6 h; average of values; read-out: Assay 2 IC50
Method in brief: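 L363 myeloma cells were BAFF-stimulated (250 ng/ml) overnight in DMEM/0.5% BSA, then exposed 6 h at 37° C to compound (11-point 1:3 series, 0.3% DMSO) with BAFF plus 10 uM MG132. p-IKKα (Ser 176/180) was read by AlphaLISA SureFire Ultra in lysates. IC50 came from sigmoidal fits normalized to stimulated and unstimulated controls.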

Chain of Recombinant Human NF-Kappab-Inducing Kinase (NIK/MAP3K14) (Q99558 whole entry): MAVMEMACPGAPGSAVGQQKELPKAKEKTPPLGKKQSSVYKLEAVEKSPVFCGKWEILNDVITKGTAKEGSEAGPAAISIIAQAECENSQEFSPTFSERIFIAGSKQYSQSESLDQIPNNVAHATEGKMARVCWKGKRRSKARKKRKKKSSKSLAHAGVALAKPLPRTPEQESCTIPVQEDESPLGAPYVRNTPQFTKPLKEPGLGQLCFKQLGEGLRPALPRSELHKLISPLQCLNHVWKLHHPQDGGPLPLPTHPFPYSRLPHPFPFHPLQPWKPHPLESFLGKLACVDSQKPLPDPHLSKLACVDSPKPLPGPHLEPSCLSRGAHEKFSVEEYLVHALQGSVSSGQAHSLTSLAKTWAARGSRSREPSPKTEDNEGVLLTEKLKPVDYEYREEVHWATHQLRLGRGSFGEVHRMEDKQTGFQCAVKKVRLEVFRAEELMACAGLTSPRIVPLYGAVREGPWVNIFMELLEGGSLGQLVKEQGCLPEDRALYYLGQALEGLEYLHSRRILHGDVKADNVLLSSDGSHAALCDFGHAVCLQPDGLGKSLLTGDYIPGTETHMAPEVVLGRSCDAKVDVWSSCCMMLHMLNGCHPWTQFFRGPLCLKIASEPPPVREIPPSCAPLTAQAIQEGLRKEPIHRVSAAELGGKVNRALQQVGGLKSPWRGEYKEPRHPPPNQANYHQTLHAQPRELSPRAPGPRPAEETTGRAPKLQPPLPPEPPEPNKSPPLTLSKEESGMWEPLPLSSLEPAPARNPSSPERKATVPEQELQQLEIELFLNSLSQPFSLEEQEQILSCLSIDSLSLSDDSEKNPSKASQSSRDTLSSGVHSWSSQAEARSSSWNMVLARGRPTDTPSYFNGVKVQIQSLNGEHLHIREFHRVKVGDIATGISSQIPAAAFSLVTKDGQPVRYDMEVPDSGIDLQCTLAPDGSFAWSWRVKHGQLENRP

SMILES | IC50 [1] [nM] | IC50 [2] [nM]
CN1CC[C@@](O)(c2cc(-c3cccc(-c4ccc(NCC5COC5)c(C(N)=O)n4)c3)no2)C1=O [Example 106, (R)-6-(3-(5-(3-Hydroxy-1-methyl-2-oxopyrrolidin-3-yl)isoxazol-3-yl)phenyl)-3-((oxetan-3-ylmethyl)amino)picolinamide] | < 100 | 100 to 500
CN1CC[C@@](O)(c2cc(-c3cccc(-c4ncc(NCC5COC5)c(C(N)=O)n4)c3)no2)C1=O [Example 107, (R)-2-(3-(5-(3-Hydroxy-1-methyl-2-oxopyrrolidin-3-yl)isoxazol-3-yl)phenyl)-5-((oxetan-3-ylmethyl)amino)pyrimidine-4-carboxamide] | < 100 | < 100
CN1CC[C@@](O)(c2cc(-c3cccc(-c4cc(C5CC5)c(N)c(C(N)=O)n4)c3)on2)C1=O [Example 108, (R)-3-Amino-4-cyclopropyl-6-(3-(3-(3-hydroxy-1-methyl-2-oxopyrrolidin-3-yl)isoxazol-5-yl)phenyl)picolinamide] | < 100 | < 100
CN1CC[C@@](O)(c2cc(-c3cccc(-c4nc(C(N)=O)n5ccncc45)c3)no2)C1=O [Example 109, (R)-1-(3-(5-(3-Hydroxy-1-methyl-2-oxopyrrolidin-3-yl)isoxazol-3-yl)phenyl)imidazo[1,5-a]pyrazine-3-carboxamide] | < 100 | 100 to 500
CN1CC[C@@](O)(c2cc(-c3cccc(-c4cnc(N)c(C(N)=O)n4)c3)no2)C1=O [Example 110, (R)-3-Amino-6-(3-(5-(3-hydroxy-1-methyl-2-oxopyrrolidin-3-yl)isoxazol-3-yl)phenyl)pyrazine-2-carboxamide] | < 100 | < 100
CN1CC[C@@](O)(c2cc(-c3cccc(-c4ncc(NC5CC5)c(C(N)=O)n4)c3)no2)C1=O [Example 111, (R)-5-(Cyclopropylamino)-2-(3-(5-(3-hydroxy-1-methyl-2-oxopyrrolidin-3-yl)isoxazol-3-yl)phenyl)pyrimidine-4-carboxamide] | < 100 | < 100
CN1CC[C@@](O)(c2cc(-c3cccc(-n4nc(C(N)=O)c5cc(C6CC6)ccc54)c3)no2)C1=O [Example 112, (R)-5-Cyclopropyl-1-(3-(5-(3-hydroxy-1-methyl-2-oxopyrrolidin-3-yl)isoxazol-3-yl)phenyl)-1H-indazole-3-carboxamide] | < 100 | 100 to 500
COc1cc(-c2cc(-c3cc([C@]4(O)CCN(C)C4=O)on3)c(F)cc2F)nc2c(N)ncnc12 [Example 113, (R)-3-(3-(5-(4-Amino-8-methoxypyrido[3,2-d]pyrimidin-6-yl)-2,4-difluorophenyl)isoxazol-5-yl)-3-hydroxy-1-methylpyrrolidin-2-one] | < 100 | > 501
CN1CC[C@@](O)(c2cc(-c3cccc(-c4cn(C)c(C(N)=O)n4)c3)no2)C1=O [Example 114, (R)-4-(3-(5-(3-Hydroxy-1-methyl-2-oxopyrrolidin-3-yl)isoxazol-3-yl)phenyl)-1-methyl-1H-imidazole-2-carboxamide] | < 100 | > 501
COc1cc(-c2cc(-c3cc([C@]4(O)C[C@@H](C(F)(F)F)N(C)C4=O)on3)c(F)cc2F)nc2c(N)ncnc12 [Example 115, (3R,5S)-3-(3-(5-(4-Amino-8-methoxypyrido[3,2-d]pyrimidin-6-yl)-2,4-difluorophenyl)isoxazol-5-yl)-3-hydroxy-1-methyl-5-(trifluoromethyl)pyrrolidin-2-one] | > 501 | > 501
COc1cc(-c2cc(-c3cc([C@]4(O)C[C@@H](C(F)(F)F)N(C)C4=O)on3)ccc2F)nc2c(N)ncnc12 [Example 116, (3R,5S)-3-(3-(3-(4-amino-8-methoxypyrido[3,2-d]pyrimidin-6-yl)-4-fluorophenyl)isoxazol-5-yl)-3-hydroxy-1-methyl-5-(trifluoromethyl)pyrrolidin-2-one] | < 100 | > 501
CN1CC[C@@](O)(c2cc(-c3cccc(-c4cc(C5CC5)cc(C(N)=O)n4)c3)no2)C1=O [Example 117, (R)-4-Cyclopropyl-6-(3-(5-(3-hydroxy-1-methyl-2-oxopyrrolidin-3-yl)isoxazol-3-yl)phenyl)picolinamide] | < 100 | 100 to 500
COc1cc(-c2cccc(-c3cc([C@]4(O)CCN(C)C4=O)on3)c2)nc2c(N)ncnc12 [Example 118, (R)-3-(3-(3-(4-Amino-8-methoxypyrido[3,2-d]pyrimidin-6-yl)phenyl)isoxazol-5-yl)-3-hydroxy-1-methylpyrrolidin-2-one] | < 100 | 100 to 500
COc1cc(-c2cc(-c3cc([C@@]4(O)C(=O)N(C)CC4(F)F)on3)ccc2F)nc2c(N)ncnc12 [Example 119, (R)-3-(3-(3-(4-Amino-8-methoxypyrido[3,2-d]pyrimidin-6-yl)-4-fluorophenyl)isoxazol-5-yl)-4,4-difluoro-3-hydroxy-1-methylpyrrolidin-2-one] | < 100 | 100 to 500
COc1cc(-c2cc(-c3cc([C@]4(O)CCN(C)C4=O)on3)ccc2F)nc2c(N)ncnc12 [Example 120, (R)-3-(3-(3-(4-Amino-8-methoxypyrido[3,2-d]pyrimidin-6-yl)-4-fluorophenyl)isoxazol-5-yl)-3-hydroxy-1-methylpyrrolidin-2-one] | < 100 | > 501
CN1CC[C@@](O)(c2cc(-c3ccc(F)c(-c4ncc(NC5COC5)c(C(N)=O)n4)c3)no2)C1=O [Example 121, (R)-2-(2-Fluoro-5-(5-(3-hydroxy-1-methyl-2-oxopyrrolidin-3-yl)isoxazol-3-yl)phenyl)-5-(oxetan-3-ylamino)pyrimidine-4-carboxamide] | < 100 | 100 to 500
Cc1c(-c2cccc(-c3cc([C@]4(O)CCN(C)C4=O)on3)c2)nc(C(N)=O)n1C1CC1 [Example 122, (R)-1-Cyclopropyl-4-(3-(5-(3-hydroxy-1-methyl-2-oxopyrrolidin-3-yl)isoxazol-3-yl)phenyl)-5-methyl-1H-imidazole-2-carboxamide] | 100 to 500 | > 501
Cc1nc(-c2cc(-c3cc([C@@]4(O)C(=O)N(C)CC4(F)F)on3)cc(F)c2F)nc2c(N)ncnc12 [Example 123, (R)-3-(3-(3-(8-amino-4-methylpyrimido[5,4-d]pyrimidin-2-yl)-4,5-difluorophenyl)isoxazol-5-yl)-4,4-difluoro-3-hydroxy-1-methylpyrrolidin-2-one] | < 100 | 100 to 500
CN1CC[C@@](O)(c2cc(-c3cccc(-c4cc5c(c(C(N)=O)n4)CCCC5)c3)no2)C1=O [Example 124, (R)-3-(3-(5-(3-Hydroxy-1-methyl-2-oxopyrrolidin-3-yl)isoxazol-3-yl)phenyl)-5,6,7,8-tetrahydroisoquinoline-1-carboxamide] | < 100 | > 501
CN1CC[C@@](O)(c2cc(-c3cccc(-c4nc5c(c(C(N)=O)n4)CCCC5)c3)no2)C1=O [Example 125, (R)-2-(3-(5-(3-Hydroxy-1-methyl-2-oxopyrrolidin-3-yl)isoxazol-3-yl)phenyl)-5,6,7,8-tetrahydroquinazoline-4-carboxamide] | < 100 | > 501
CN1CC[C@@](O)(c2cc(-c3cccc(-c4ncc(N)c(C(=O)N[C@H]5CCOC5)n4)c3)no2)C1=O [Example 126, 5-Amino-2-(3-(5-((R)-3-hydroxy-1-methyl-2-oxopyrrolidin-3-yl)isoxazol-3-yl)phenyl)-N—((S)-tetrahydrofuran-3-yl)pyrimidine-4-carboxamide] | < 100 | > 501
CN1CC[C@@](O)(c2cc(-c3cccc(-c4ncc(N[C@H]5CCOC5)c(C(N)=O)n4)c3)no2)C1=O [Example 127, 2-(3-(5-((R)-3-hydroxy-1-methyl-2-oxopyrrolidin-3-yl)isoxazol-3-yl)phenyl)-5-(((S)-tetrahydrofuran-3-yl)amino)pyrimidine-4-carboxamide] | < 100 | < 100
CN1CC[C@@](O)(c2cc(-c3cccc(-c4ncc(N)c(C(=O)N[C@@H]5CCOC5)n4)c3)no2)C1=O [Example 128, 5-Amino-2-(3-(5-((R)-3-hydroxy-1-methyl-2-oxopyrrolidin-3-yl)isoxazol-3-yl)phenyl)-N—((R)-tetrahydrofuran-3-yl)pyrimidine-4-carboxamide] | < 100 | > 501
CN1CC[C@@](O)(c2cc(-c3cccc(-c4ncc(N[C@@H]5CCOC5)c(C(N)=O)n4)c3)no2)C1=O [Example 129, 2-(3-(5-((R)-3-hydroxy-1-methyl-2-oxopyrrolidin-3-yl)isoxazol-3-yl)phenyl)-5-(((R)-tetrahydrofuran-3-yl)amino)pyrimidine-4-carboxamide] | < 100 | < 100
CN1CC[C@@](O)(c2cc(-c3cccc(-c4ncc(Nc5ccn(C)n5)c(C(N)=O)n4)c3)no2)C1=O [Example 130, (R)-2-(3-(5-(3-Hydroxy-1-methyl-2-oxopyrrolidin-3-yl)isoxazol-3-yl)phenyl)-5-((1-methyl-1H-pyrazol-3-yl)amino)pyrimidine-4-carboxamide] | < 100 | < 100
CN1CC[C@@](O)(c2cc(-c3cccc(-c4cc(N[C@H]5CCOC5)cc(C(N)=O)n4)c3)no2)C1=O [Example 131, 6-(3-(5-((R)-3-Hydroxy-1-methyl-2-oxopyrrolidin-3-yl)isoxazol-3-yl)phenyl)-4-(((S)-tetrahydrofuran-3-yl)amino)picolinamide] | > 501 | > 501
